The values that follow are results of earlier work, collected in patent US20240100008A1, “ADMINISTRATION OF GLYCEROL TRIBENZOATE AND GLYCEROL PHENYLBUTYRATE FOR TREATMENT OF NEURODEGENERATIVE AND UREA CYCLE DISORDERS” (Rush University Medical Center, priority 2020, published 2024).

Data set [1] deals with animal model of Alzheimer's disease.
The subject of the next data set is BDNF. The note with it: brain cells.
Another data set has as its system DJ-1. The note with it: astrocytes and neurons.
The subject of data set [2] is multiple sclerosis in mice.
Experiment in data set [3]: not given
The source holds these as a separate data set.

For another data set, the system named is NT-3. The note with it: brain cells.

Consider `O=C(CCCc1ccccc1)OCC(COC(=O)CCCc1ccccc1)OC(=O)CCCc1ccccc1` [glycerol phenylbutyrate, Glycerol phenylbutyrate], for which, for the setting “in vivo, po”, the side effect entry was “diarrhea is a common side effect”.
For `O=C([O-])c1ccccc1.[Na+]` [sodium benzoate, Sodium benzoate], in data set [1], the memory and learning result was “protecting memory and learning”; the oxidative stress result was “attenuating oxidative stress”. The “production of BDNF” value in the data set on BDNF is listed as “increases”. Besides, in the data set with DJ-1, the DJ-1 protein level result is reported as “upregulates”. The “disease process of multiple sclerosis” value in data set [2] was “suppresses”. Moreover, the “excretion from the body” value in data set [3] (through urine) is listed as “quickly excreted”. The “production of NT-3” value in the data set on NT-3 is recorded as “increases”. For the setting “patients, high dose sodium benzoate several times a day”, the side effects entry was “feel drowsy and also suffer from nausea, vomiting and headache”.
Regarding `O=C(OCC(COC(=O)c1ccccc1)OC(=O)c1ccccc1)c1ccccc1` [glyceryl (i.e. glycerol) tribenzoate, glycerol tribenzoate], in data set [3] (in vivo), the “release form of sodium benzoate” value was “sustained-release and a slow-release form”.
